Our source for the Activity values is ChEMBL document CHEMBL1148736, “N-Acylthiadiazolines, a new class of liver X receptor agonists with selectivity for LXRbeta” (J Med Chem, 2007).

The target of the test is T1, Vitamin D3 receptor (Homo sapiens) (UniProt P11473).
T1 sequence (whole entry): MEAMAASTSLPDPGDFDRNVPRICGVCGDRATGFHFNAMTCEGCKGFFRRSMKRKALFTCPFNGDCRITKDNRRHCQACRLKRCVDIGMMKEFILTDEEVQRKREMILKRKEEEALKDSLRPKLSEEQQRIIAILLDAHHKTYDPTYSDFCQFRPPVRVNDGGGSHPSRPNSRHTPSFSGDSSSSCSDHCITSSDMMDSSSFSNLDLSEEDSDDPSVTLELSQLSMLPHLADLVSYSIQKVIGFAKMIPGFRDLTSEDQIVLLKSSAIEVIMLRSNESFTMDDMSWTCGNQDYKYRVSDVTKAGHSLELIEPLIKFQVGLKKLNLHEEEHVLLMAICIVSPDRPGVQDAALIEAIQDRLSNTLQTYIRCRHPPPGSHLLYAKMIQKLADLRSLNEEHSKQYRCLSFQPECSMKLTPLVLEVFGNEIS
The experiment in a line: Activity at VDR by cell based assay. The format is functional.

The structures appear in SMILES notation. Active and inactive are the calls of the source. The calls are words filed in the database; no cut-off is given here.

For `COc1cccc(C2SC(c3ccc(Cl)cc3)=NN2C(=O)c2c(F)cc(F)cc2F)c1OC` (racemic), the result was inactive.
